Reference: US11116784B2, “Niacinamide (NAM) in ischemic tissue injury” (Beth Israel Deaconess Medical Center, Inc., priority 2016, dated 2021)
Entries after “also recorded” stand apart in the source; their conditions may differ.

Key:
[1] = tested on: NNMT in cultured renal tubular cells (IMCD3); conditions: 24 hr exposure to 1-Me-Nam
Experimental: LC-MS assays were developed for multiplex quantification of Nam, NAD, and β-hydroxybutyrate (β-OHB) from cellular experiments. NAD measurements reflect total NAD^+ plus NADH. Briefly, conditioned medium was extracted with methanol (80% methanol final concentration) spiked with isotopic standards for Nam and β-OHB (CDN Isotopes, Inc.). Precipitated proteins were removed by centrifugation, and supernatants were analyzed directly. For analysis of cell lysates, cells were washed with ice-cold PBS, scraped and lysed on dry ice into methanol containing isotopic standards. After extraction, cell and media supernatants were analyzed by LC-MS/MS using reverse-phase chromatography (NAM and NAD/NADH) or hydrophilic interaction chromatography (β-OHB) coupled to tandem mass spectrometry using an API 5000 triple quadruple mass spectrometer. Analytes were quantified by multiple reaction monitoring using the following m/z transitions: β-OHB 103.1>59, β-OHB IS 105.1>60, NAM 123.3>80.2, NAM IS 127.3>84.2, NAD/NADH 664.2>542.0. Eluting peaks were quantified by area under the curve (AUC).
Mouse intermedullary collecting duct (IMCD3) cells were obtained from ATCC. […] Cells were transfected with siRNA targeting mouse PGC1, HCAR2 or a negative control siRNA (Qiagen) for 24 h. […] Prostaglandin E2 (PGE2) was measured in the conditioned media 24-72 hours after treatment.

[2] = tested on: renal tubular cells (IMCD3); assay: PGE2 in conditioned media of renal tubular cells; format: cell-based, mouse
Experimental: Mouse intermedullary collecting duct (IMCD3) cells were obtained from ATCC. […] Cells were transfected with siRNA targeting mouse PGC1, HCAR2 or a negative control siRNA (Qiagen) for 24 h. Niacin, mepenzolate bromide, β-hydroxybutyrate, the NAMPT inhibitor FK866 ([…] et al. Cancer research 2003; 63, 7436-7442), and niacinamide were diluted to the indicated concentrations in serum-free cell culture medium. Prostaglandin E2 (PGE2) was measured in the conditioned media 24-72 hours after treatment.

mice [3] = assay: Renal NAD and β-OHB after exogenous Nam in mice; format: in vivo, mouse
Experimental: All chemicals were purchased from Sigma-Aldrich unless otherwise noted. Niacinamide was given by intraperitoneal injection of 400 mg/kg/day×4 days in saline, with the final dose an hour prior to IRI surgery. In rescue experiments, the same dose was administered once 18 hours after reperfusion. Indomethacin was given by intraperitoneal injection of 10 mg/kg in 0.1 M sodium carbonate/saline an hour prior to IRI. […] In brief, amino acids, amines, acylcarnitines, nucleotides, and other cationic polar metabolites were measured in 10 μl of kidney homogenate using hydrophilic interaction liquid chromatography coupled with nontargeted, positive ion mode MS analysis on an Exactive Plus Orbitrap MS (Thermo Scientific). Polar and non-polar lipids were measured in 10 μl of kidney homogenate using C8 chromatography and nontargeted, positive ion mode MS analysis on a Q Exactive MS (Thermo Scientific). […] Results were analyzed in MetaboAnalyst (Xia et al., Nucleic Acids Res. 40 (Web Server issue): […]-33 (2012)). PGE2 was measured in mouse kidney tissue by ELISA (Cayman Chemical). β-OHB (Cayman Chemical) and total NAD (BioVision) was measured in mouse kidney tissue by colorimetric assays. […]

[4] = tested on: healthy 8-12 wk old male mice; assay: Renal blood flow by Doppler ultrasound in healthy mice; format: in vivo, mouse; conditions: Nam 400 mg/kg intraperitoneal x 1; 4 h after injection vs pre-Nam
Excerpt: The full method is previously described (Tran et al. J Clin Invest 2011; 121, 4003-4014). Briefly, mice were lightly anesthetized, secured to a heat-controlled stage, and continuously monitored for respiration, ECG, and core temperature. A high frequency, high resolution digital imaging platform with linear array technology and equipped with a high-frequency linear array probe MS550D (22-55 MHz) was used throughout the study (Vevo 2100 Visual Sonics). The flow volume was modeled as a circular cylinder of length equal to the average velocity time integral and diameter measured empirically (n=3 cardiac cycles), then multiplied by the heart rate (bpm), then converted from mm^3/min to ml/min. All measurements and analyses were performed by a single blinded operator (EVK).

PGC1α^−/− animals = assay: Intracardiac lipids after Nam; format: in vivo, mouse; conditions: Nam 400 mg/kg IP
[5] = tested on: mice with established AKI; assay: Nam rescue of established ischemic AKI (single dose 18 h after reperfusion); format: in vivo, mouse; conditions: Nam 400 mg/kg IP x 1, 18 h after onset of reperfusion
Experimental: (§1) Renal ischemia-reperfusion injury (IRI) was performed on 8-12 week-old males through two small paramedial dorsal incisions by applying a microvascular clamp to each renal pedicle for 20 minutes. Mice were anesthetized with isoflurane for the duration of surgery and warmed to 37° C. using a servo-controlled heating pad. Incisions were closed in two layers and mice were revived with 1 ml warm saline injected intraperitoneally.
(§2) All chemicals were purchased from Sigma-Aldrich unless otherwise noted. Niacinamide was given by intraperitoneal injection of 400 mg/kg/day×4 days in saline, with the final dose an hour prior to IRI surgery. In rescue experiments, the same dose was administered once 18 hours after reperfusion. Indomethacin was given by intraperitoneal injection of 10 mg/kg in 0.1 M sodium carbonate/saline an hour prior to IRI. […]
(§3) All measurements were performed in a blinded fashion by an independent facility. Creatinine was analyzed by LC/MS-MS at the University of Alabama Birmingham O'Brien Core Center for Acute Kidney Injury Research (NIH P30-DK079337). […]

PGC1α^−/− mice = assay: Renal ischemia-reperfusion injury (IRI) in PGC1α−/− mice with Nam pretreatment; format: in vivo, mouse
Experimental: as §1, §2, §3
For metabolomics measurements, snap frozen kidneys were cut to equal weights (20 mg/specimen) and mechanically homogenized into 4 volumes of ice-cold water. […] In brief, amino acids, amines, acylcarnitines, nucleotides, and other cationic polar metabolites were measured in 10 μl of kidney homogenate using hydrophilic interaction liquid chromatography coupled with nontargeted, positive ion mode MS analysis on an Exactive Plus Orbitrap MS (Thermo Scientific). Polar and non-polar lipids were measured in 10 μl of kidney homogenate using C8 chromatography and nontargeted, positive ion mode MS analysis on a Q Exactive MS (Thermo Scientific). […] Results were analyzed in MetaboAnalyst (Xia et al., Nucleic Acids Res. 40 (Web Server issue): W127-33 (2012)). […]

mice [6] = assay: Cisplatin nephrotoxicity model; format: in vivo, mouse; conditions: cisplatin 25 mg/kg IP day 0; Nam 400 mg/kg IP on day −1 and day 0
Excerpt: All chemicals were purchased from Sigma-Aldrich unless otherwise noted.

explanted hearts = assay: NAD in explanted hearts stored in UW Belzer preservation solution; design: species or system mouse; conditions: 500 μM, 1 mM or 10 mM Nam in ice-cold UW Belzer solution, 3 hours, vs UW Belzer alone
Experimental: (§4) A, To mimic donor organ harvest, deeply anesthetized mice were flushed intravascularly with ice-cold UW Belzer solution, then placed into ice cold solutions of UW-Belzer with or without 5 μM of P7C3, NAMPT agonist. After 16 hours for the explanted kidneys, organs were analyzed for levels of NAD (pg/μg of protein). B, To mimic donor organ harvest, deeply anesthetized mice were flushed intravascularly with ice-cold UW Belzer solution, then placed into ice cold solutions of UW-Belzer with or without 500 μM, 1 mM or 10 mM Nam. After 3 hours for the explanted hearts, organs were analyzed for levels of NAD (pg/μg of protein). C, NAMPT is the rate-limiting enzyme for the conversion of Nam to NAD via the intermediate NMN (nicotinamide mononucleotide).
(§5) To further expand upon the results from the retrospective cohort of patient study, the conditions of donor organ harvest were mimicked using mice in hopes of improving post-implantation graft performance (FIG. 23). In this experiment, kidney and heart were harvested and Nam or P7C3, a NAMPT agonist, were added to the preservation solution. Upon incubation of kidney with P7C3 in the preservation solution, NAD levels increased as compared to kidney incubated with the UW Belzer solution alone (FIG. 23A). […]

PGC1α KO mice = assay: Cardiac IRI with pressure volume loops in PGC1α KO mice; format: in vivo, mouse; conditions: Nam 400 mg/kg IP, one dose before IRI, two after; 2 weeks after 45 min coronary occlusion
Experimental: For cardiac IRI surgery, mice were anesthetized, intubated, and placed on a rodent ventilator. After thoracotomy, the left anterior descending artery was identified and ligated with a 7-0 silk suture tied around a specialized 30 gauge catheter. The animal remained under anesthesia and ventilation for 45 minutes of ischemia. Reperfusio was achieved by cutting the suture and re-establishing arterial perfusion. The thoracotomy was then sutured closed and animals recovered with warmed saline injected intraperitoneally.
Pressure volume loops were performed to assess cardiac parameters. Cardiac function was measured in mice using the left ventricle (LV) pressure-volume and echocardiography 2 weeks after cardiac IRI or sham control procedure. After 2% isolfurane inhalant anesthesia, the pressure-volume parameters were measured using a 1.4 French microtip pressure-volume catheter. The catheter was first inserted into the right common carotid artery and then gently advanced into the LV to obtain LV hemodynamic measurements. Data were recorded using a Powerlab system. Beat-by-beat pressure-volume parameters including heart rate, stroke volume, stroke work, and cardiac output were measured and analyzed using Cardiosoft Pro software. […] Two-dimensional guided M-mode images were recorded. […]

explanted kidneys = assay: NAD in explanted kidneys stored in UW Belzer preservation solution; design: species or system mouse; conditions: 5 μM P7C3 in ice-cold UW Belzer solution, 16 hours, vs UW Belzer alone
Experimental: as §4, §5

iNephPGC1α mice = assay: Renal IRI in iNephPGC1α mice with inhibition of β-OHB signaling or prostaglandin synthesis; format: in vivo, mouse; conditions: 10 mg/kg IP one hour prior to IRI
Experimental: as §1, §2, §3

**Q.** For `C[n+]1cccc(C(N)=O)c1` [1-Me-Nam, 1-methyl-niacinamide], which “NAD in IMCD3 cells” value [1] is on record?
**A.** dose-dependent induction of NAD

**Q.** `NC(=O)c1cccnc1` [Nam, niacinamide] was tested. Which PGE2 secretion ([2]; Nam 1 μM for 24 h) did it give?
**A.** augmented

**Q.** What about the “renal NAD” value (mice [3]; 4 h after a single IP Nam dose (100-400 mg/kg)) of the same compound?
**A.** dose-dependently increased; also recorded: can increase renal NAD levels

**Q.** What about the “renal β-OHB accumulation relative to normal circulating concentrations” value (mice [3]; Nam 400 mg/kg IP x 4 d, p<0.0001) of the same compound?
**A.** ten-fold

**Q.** What about the renal blood flow [4] of the same compound?
**A.** improved

**Q.** And the “intracardiac di- and tri-acylglycerols (DAG, TAG)” value (PGC1α^−/− animals)?
**A.** decline markedly

**Q.** And the intracardiac phospholipids (PGC1α^−/− animals)?
**A.** largely unaltered

**Q.** And the “renal function (serial serum creatinine) in established AKI” value [5]?
**A.** significantly improved; also recorded: attenuated; also recorded: rapidly improved

**Q.** And the “renal Nam” value (PGC1α^−/− mice; Nam 400 mg/kg IP x 4 d, with and without IRI 24 h before tissue collection, p<0.001)?
**A.** increased

**Q.** And the “post-ischemic fat accumulation (Oil Red O)” value (PGC1α^−/− mice; Nam pretreatment 400 mg/kg IP x 4 d, 24 h after IRI)?
**A.** normalized

**Q.** What about the “post-ischemic AKI (serum creatinine)” value (PGC1α^−/− mice; PGC1α−/− mice, Nam 400 mg/kg/day IP x 4 d, last dose 1 h before IRI) of the same compound?
**A.** completely prevented

**Q.** What about the “cisplatin-induced AKI (serial serum creatinine)” value (mice [6]) of the same compound?
**A.** prevented

**Q.** And the “NAD levels in explanted hearts” value (explanted hearts)?
**A.** increased; also recorded: can boost NAD levels

**Q.** And the “contraction (dP/dt max)” value (PGC1α KO mice)?
**A.** improved

**Q.** And the “relaxation (dP/dt min)” value (PGC1α KO mice)?
**A.** improved

**Q.** How did the “NAD levels in explanted kidneys” value (explanted kidneys) turn out when `OC(CNc1ccccc1)Cn1c2ccc(Br)cc2c2cc(Br)ccc21` (stereo not shown) [P7C3] was run?
**A.** increased; also recorded: can boost NAD levels

**Q.** How did the “renal protection (serum creatinine 24 h after IRI)” value (iNephPGC1α mice) turn out when `COc1ccc2c(c1)c(CC(=O)O)c(C)n2C(=O)c1ccc(Cl)cc1` [indomethacin] was run?
**A.** abolished

**Q.** `C[N+]1(C)CCCC(OC(=O)C(O)(c2ccccc2)c2ccccc2)C1` (stereo not shown) [mepenzolate bromide] was tested. Which “renal protection (serum creatinine 24 h after IRI)” value (iNephPGC1α mice) did it give?
**A.** abolished

**Q.** Which “PGE2 secretion in PGC1α-silenced cells” value ([2]; exogenous β-OHB 5 mM, p<0.0001) does the source give for `CC(O)CC(=O)O` (stereo not drawn) [β-OHB, beta-hydroxybutyrate] here?
**A.** still able to induce PGE2 secretion
